Assay results from US7276339B2 (H. Lundbeck A/S, priority 1998, dated 2007).
Read-outs that look alike come from different tables or passages of the source. Non-standard residues stand in square brackets, D forms with d. Residues, ends and D or L forms follow the SMILES beside them. No end group written: not given here. NMeF = CN[C@@H](Cc1ccccc1)C(=O)O

Legend:
human NPFF1 receptor = biological target: T1, human NPFF1 receptor (Homo sapiens, UniProt Q9GZQ6); assay: [125I]D-Tyr-NPFF radioligand binding, HEK-293 cells expressing human NPFF1; settings: Table 3, read-out: pKi ± SEM, human NPFF1 (converted)
T1 construct: To obtain a full-length hNPFF1 construct in the correct orientation; expressed in transfected cells; host or cells: HEK-293 (transient)
T1 sequence (Q9GZQ6 whole entry): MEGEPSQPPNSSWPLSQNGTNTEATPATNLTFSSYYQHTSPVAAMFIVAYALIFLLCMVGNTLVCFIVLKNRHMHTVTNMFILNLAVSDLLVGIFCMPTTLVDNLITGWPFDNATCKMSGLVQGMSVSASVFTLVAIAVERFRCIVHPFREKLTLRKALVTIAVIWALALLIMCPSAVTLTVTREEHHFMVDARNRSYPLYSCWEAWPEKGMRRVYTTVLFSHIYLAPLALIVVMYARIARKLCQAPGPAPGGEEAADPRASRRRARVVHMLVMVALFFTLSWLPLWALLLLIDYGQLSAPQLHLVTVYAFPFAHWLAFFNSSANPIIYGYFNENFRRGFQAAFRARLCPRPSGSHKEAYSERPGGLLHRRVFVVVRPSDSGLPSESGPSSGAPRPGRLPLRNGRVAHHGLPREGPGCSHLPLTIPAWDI
Procedure: (§1) Transfected cells from culture flasks are scraped into 5 ml of 20 mM Tris-HCl, 5 mM EDTA, pH 7.5, and lysed by sonication. The cell lysates are centrifuged at 1000 rpm for 5 min. at 4° C., and the supernatant is centrifuged at 30,000×g for 20 min. at 4° C. The pellet is suspended in binding buffer (50 mM Tris-HCl, 60 mM NaCl, 1 mM MgCl, 33 μM EDTA, 33 μM EGTA at pH 7.4 supplemented with 0.2% BSA, 2 μg/ml aprotinin, and 20 μM bestatin). Optimal membrane suspension dilutions, defined as the protein concentration required to bind less than 10% of the added radioligand, are added to 96-well polpropylene microtiter plates containing ^3H-labeled compound, unlabeled compounds, and binding buffer to a final volume of 250 μl. In equilibrium saturation binding assays membrane preparations are incubated in the presence of increasing concentrations of [^3H]-labeled compound. The binding affinities of the different compounds are determined in equilibrium competition binding assays, using [^125I]-labeled compound in the presence of ten to twelve different concentrations of the displacing ligands. Competition assay: 50 pM radioligand, 10-12 points. Binding reaction mixtures are incubated for 2 hr at 25° C., and the reaction stopped by filtration through a double layer of GF filters treated with 0.1% polyethyleneimine, using a cell harvester. Wash buffer: 50 mM Tris-HCl, 0.1% BSA. Radioactivity may be measured by scintillation counting and data are analyzed by a computerized non-linear regression program. Non-specific binding is defined as the amount of radioactivity remaining after incubation of membrane protein in the presence of 1 μM final concentration […]. Protein concentration may be measured by the Bradford method using Bio-Rad Reagent, with bovine serum albumin as a standard.
(§2) Additional pharmacological evaluation was done using 293 human embryonic kidney cells (HEK-293 cells) transiently expressing the genes encoding the human NPFF1, NPFF2, and rat NPFF1 receptors, as well as Cos-7 cells expressing the rat NPFF2 receptors.

human NPFF2 receptor = biological target: T2, human NPFF2 receptor (Homo sapiens, UniProt Q9Y5X5); assay: [125I]D-Tyr-NPFF radioligand binding, HEK-293 cells expressing human NPFF2; settings: Table 3; HEK-293 cells; [125I]D-Tyr-NPFF; read-out: pKi ± SEM, human NPFF2 (converted)
T2 construct: BO89, was determined to be a full length clone with no point mutations; expressed in transfected cells; host or cells: HEK-293 (transient)
T2 sequence (Q9Y5X5 103-522): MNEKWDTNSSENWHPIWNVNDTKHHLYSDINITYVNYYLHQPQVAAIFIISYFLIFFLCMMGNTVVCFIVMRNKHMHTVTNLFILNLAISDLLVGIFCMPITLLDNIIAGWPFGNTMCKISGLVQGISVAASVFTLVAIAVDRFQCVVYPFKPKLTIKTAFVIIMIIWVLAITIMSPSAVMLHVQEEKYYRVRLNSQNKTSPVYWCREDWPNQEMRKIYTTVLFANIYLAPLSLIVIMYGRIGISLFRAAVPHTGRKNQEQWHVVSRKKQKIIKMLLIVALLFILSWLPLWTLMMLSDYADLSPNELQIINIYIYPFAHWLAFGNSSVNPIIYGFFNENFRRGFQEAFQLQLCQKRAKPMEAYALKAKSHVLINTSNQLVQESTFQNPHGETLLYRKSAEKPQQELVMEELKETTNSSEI
Procedure: as §1, §2

rat NPFF2 receptor [1] = biological target: T3, rat NPFF2 receptor (Rattus norvegicus, UniProt Q9EQD2); assay: [125I]D-Tyr-NPFF radioligand binding, cloned rat NPFF2; settings: Table 3; title HEK-293 cells (text: Cos-7); [125I]D-Tyr-NPFF; read-out: pKi ± SEM, rat NPFF2 (converted)
T3 construct: The full-length rat NPFF2 clone was amplified from rat spinal cord cDNA; expressed in transfected cells; host or cells: COS-7
T3 sequence (Q9EQD2 whole entry): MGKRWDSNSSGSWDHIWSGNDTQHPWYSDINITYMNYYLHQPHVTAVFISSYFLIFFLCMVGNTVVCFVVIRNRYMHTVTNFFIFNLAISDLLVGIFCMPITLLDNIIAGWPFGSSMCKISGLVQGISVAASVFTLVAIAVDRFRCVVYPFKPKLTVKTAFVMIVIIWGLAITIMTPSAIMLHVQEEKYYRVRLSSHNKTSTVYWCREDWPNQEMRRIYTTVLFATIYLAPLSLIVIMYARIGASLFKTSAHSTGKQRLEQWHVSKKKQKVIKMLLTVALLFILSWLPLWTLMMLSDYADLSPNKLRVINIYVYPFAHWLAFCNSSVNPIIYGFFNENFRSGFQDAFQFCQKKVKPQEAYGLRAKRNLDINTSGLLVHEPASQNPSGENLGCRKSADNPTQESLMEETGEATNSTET
Procedure: as §1, §2

[2] = cited from earlier work
rat NPFF1 receptor [3] = biological target: T4, rat NPFF1 receptor (Rattus norvegicus, UniProt Q9EP86); assay: [125I]D-Tyr-NPFF radioligand binding, HEK-293 cells expressing rat NPFF1; design: expressed in transfected cells; settings: Table 3, read-out: pKi ± SEM, rat NPFF1 (converted)
T4 sequence (Q9EP86 whole entry): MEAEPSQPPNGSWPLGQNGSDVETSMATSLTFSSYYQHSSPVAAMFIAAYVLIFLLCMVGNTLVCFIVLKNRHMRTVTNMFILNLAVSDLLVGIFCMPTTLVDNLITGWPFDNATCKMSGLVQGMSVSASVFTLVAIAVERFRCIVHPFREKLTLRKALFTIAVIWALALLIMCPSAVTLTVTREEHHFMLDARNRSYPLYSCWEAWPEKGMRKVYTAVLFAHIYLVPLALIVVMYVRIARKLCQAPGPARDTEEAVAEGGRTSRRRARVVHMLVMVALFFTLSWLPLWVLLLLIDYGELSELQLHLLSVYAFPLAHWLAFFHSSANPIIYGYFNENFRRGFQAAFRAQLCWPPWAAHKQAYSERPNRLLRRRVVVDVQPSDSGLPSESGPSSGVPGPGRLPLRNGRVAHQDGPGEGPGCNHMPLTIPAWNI
Procedure: as §1, §2

rat NPFF2 receptor [4] = biological target: T3, rat NPFF2 receptor; assay: Functional activity at cloned rat NPFF2 in COS-7 cells; assay type: cell-based
human NPY Y1 receptor = biological target: T5, human NPY Y1 receptor (Homo sapiens, UniProt P25929); settings: cited from earlier work
T5 sequence (P25929 1-384): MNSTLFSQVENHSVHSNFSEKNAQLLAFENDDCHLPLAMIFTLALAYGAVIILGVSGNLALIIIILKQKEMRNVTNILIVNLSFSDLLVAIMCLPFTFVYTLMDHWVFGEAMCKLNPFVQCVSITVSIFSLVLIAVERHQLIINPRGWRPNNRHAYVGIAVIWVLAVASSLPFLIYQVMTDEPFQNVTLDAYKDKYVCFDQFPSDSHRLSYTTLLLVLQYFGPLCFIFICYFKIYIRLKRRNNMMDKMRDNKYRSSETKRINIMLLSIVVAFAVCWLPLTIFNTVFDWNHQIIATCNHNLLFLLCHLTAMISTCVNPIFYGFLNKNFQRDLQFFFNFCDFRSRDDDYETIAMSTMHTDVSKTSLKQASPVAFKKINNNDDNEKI

rat NPFF1 receptor [5] = biological target: T4, rat NPFF1 receptor; assay: Functional activity at cloned rat NPFF1 in COS-7 cells; assay type: cell-based; design: expressed in transfected cells; host or cells: COS-7 (transient)
NPFF-1 receptor = biological target: T6, NPFF-1 receptor (Rattus norvegicus, UniProt Q9EP86); assay: Total inositol phosphate release, Cos-7 cells transiently transfected with NPFF1; assay type: cell-based
T6 construct: expressed in transfected cells; host or cells: COS-7 (transient), alone or co-transfected with Gq/Gz chimera
T6 sequence (Q9EP86 whole entry): as the sequence (Q9EP86 whole entry) above

NPFF1 (SNORF2) = biological target: T7, NPFF1 (SNORF2) (Rattus norvegicus, UniProt Q9EP86); assay: Voltage-clamp electrophysiology, Xenopus oocytes injected with SNORF2 (NPFF1) and chimeric Gαq/z RNA; assay type: cell-based; settings: oocytes with SNORF2 + Gαq/z
T7 construct: linearized plasmids or PCR products containing the complete coding region of the genes; expressed in transfected cells; host or cells: Xenopus laevis oocytes injected with synthetic RNA (T7 transcripts)
T7 sequence (Q9EP86 whole entry): as the sequence (Q9EP86 whole entry) above
Procedure: Oocytes were harvested from Xenopus laevis and injected with mRNA transcripts as previously described (Quick and Lester, 1994; Smith et al., 1997). […] Three to eight hours prior to recording, oocytes were injected with 500 pg Gαq/z mRNA in order to observe coupling to Ca^++ activated Cl^− currents. Dual electrode voltage clamp (Axon Instruments Inc.) was performed using 3 M KCl-filled glass microelectrodes having resistances of 1-2 Mohm. Unless otherwise specified, oocytes were voltage clamped at a holding potential of −80 mV. During recordings, oocytes were bathed in continuously flowing (1-3 ml/min) medium containing 96 mM NaCl, 2 mM KCl, 1.8 mM CaCl2, 1 mM MgCl2, and 5 mM HEPES, pH 7.5 (ND96). Drugs were applied either by local perfusion from a […] glass capillary tube fixed at a distance of 0.5 mm from the oocyte, or by switching from a series of gravity fed perfusion lines.
Heterologous expression of GPCRs in Xenopus oocytes has been widely used to determine the identity of signaling pathways activated by agonist stimulation (Gundersen et al., 1983; Takahashi et al., 1987). Activation of the phospholipase C (PLC) pathway is assayed by applying test compound in ND96 solution to oocytes previously injected with mRNA for the mammalian receptor and observing inward currents at a holding potential of −80 mV. The appearance of currents that reverse at −25 mV and display other properties of the Ca^++-activated Cl^− (chloride) channel is indicative of mammalian receptor-activation of PLC and release of IP3 and intracellular Ca^++.

normotensive rats = assay: Blood pressure in anesthetized normotensive rats, intravenous administration; assay type: in vivo, rat; settings: i.v.; NPFF 1.0 mg/kg, fPP 0.1 mg/kg
Text: Rats were anesthetized with urethane and PE50 cannulae were placed in the femoral artery and vein for blood pressure monitoring and drug administration, respectively.

anesthetized rats = assay: Distension-induced rhythmic contraction (DIRC) model of the micturition reflex in anesthetized rats; assay type: in vivo, rat; settings: i.v.
Procedure: The effects of compounds on the micturition reflex were assessed in the “distension-induced rhythmic contraction” (DIRC) model in rats. This model of the micturition reflex has been described in previous publications (e.g. 72, 73).
Female Sprague Dawley rats weighing approximately 300 g were anesthetized with subcutaneous urethane (1.2 g/kg). The trachea was cannulated with PE240 tubing to provide a clear airway throughout the experiment. A midline abdominal incision was made and the left and right ureters were isolated. The ureters were ligated distally (to prevent escape of fluids from the bladder) and cannulated proximally with PE10 tubing. The incision was closed using 4-0 silk sutures, leaving the PE10 lines routed to the exterior for the elimination of urine. The bladder was canulated via the transurethral route using PE50 tubing inserted 2.5 cm beyond the urethral opening. This cannula was secured to the tail using tape and connected to a pressure transducer. To prevent leakage from the bladder, the cannula was tied tightly to the exterior urethral opening using 4-0 silk.
To initiate the micturition reflex, the bladder was first emptied by applying pressure to the lower abdomen, and then filled with normal saline in 100 μl increments (maximum=2 ml) until spontaneous bladder contractions occurred (typically 20-40 mmHg at a rate of one contraction every 2 to 3 minutes. Once a regular rhythm was established, vehicle (saline) or test compounds were administered intravenously to examine their effects on bladder activity. The effect of a compound which inhibited the micturition reflex was expressed as its “disappearance time”, defined as the time between successive bladder contractions in the presence of the test compound minus the time between contractions before compound administration.

Molecule: CC(C)C[C@H](NC(=O)[C@H](N)Cc1ccc(O)cc1)C(=O)N(C)[C@@H](Cc1ccccc1)C(=O)N[C@@H](CCC(N)=O)C(=O)N1CCC[C@H]1C(=O)N[C@@H](CCC(N)=O)C(=O)N[C@@H](CCCN=C(N)N)C(=O)N[C@@H](Cc1ccccc1)C(N)=O [(D-Tyr^1-(NMe)Phe^3)NPFF] (H-[dY]L[NMeF]QPQRF-NH2)
- Ki (human NPFF1 receptor): 7.94 nM
- Ki (human NPFF2 receptor): 3.16 nM
- Ki (rat NPFF2 receptor [1]): 2 nM
- stable after incubation with rat spinal cord membranes ([2]; 150 min. incubation): 90%
- Ki (rat NPFF1 receptor [3]): 1.58 nM

Molecule: NC(N)=NCCC[C@H](NC(=O)C(c1ccccc1)c1ccccc1)C(=O)NCc1ccc(O)cc1 [BIBP3435]
- EC50 (rat NPFF2 receptor [4]): 5420 nM
- Maximum Effect (% NPFF), rat NPFF2 (rat NPFF2 receptor [4]): 71 % NPFF
- binding affinity, human NPY Y1 receptor (human NPY Y1 receptor): > 10,000 nM
- Maximum Effect (% NPFF), rat NPFF1 (rat NPFF1 receptor [5]; COS-7 cells): 0 % NPFF
- EC50 (rat NPFF1 receptor [5]; COS-7 cells, read-out: EC50, rat NPFF1): > 10000 nM

Molecule: CC(C)C[C@H](NC(=O)[C@@H](N)Cc1ccccc1)C(=O)N[C@@H](Cc1ccccc1)C(=O)N[C@@H](CCC(N)=O)C(=O)N1CCC[C@H]1C(=O)N[C@@H](CCC(N)=O)C(=O)N[C@@H](CCCNC(=N)N)C(=O)N[C@@H](Cc1ccccc1)C(N)=O [NPFF]
- Maximum Effect (% NPFF), rat NPFF2 (rat NPFF2 receptor [4]): 100 % NPFF
- Emax, total IP release (NPFF-1 receptor; NPFF1 + Gq/Gz chimera): approximately 1500 % basal
- Emax, total IP release (NPFF-1 receptor; NPFF1 alone): approximately 200 % basal
- inward current response (NPFF1 (SNORF2); 1 μM, holding potential −80 mV): robust inward currents
- threshold for activation of inward current (NPFF1 (SNORF2)): 30 nM
- effect on mean arterial blood pressure (MAP) (normotensive rats): transient increase
- disappearance time of bladder contractions (anesthetized rats; 0.3 to 3.0 mg/kg): dose-dependently increased
- effect on distension-induced rhythmic contractions of the bladder (anesthetized rats; fPP 0.1 mg/kg): inhibited
- EC50 (rat NPFF1 receptor [5]): 9.3 nM
- Maximum Effect (% NPFF), rat NPFF1 (rat NPFF1 receptor [5]; COS-7 cells): 100 % NPFF

Molecule: YLFQPQRF-NH2 [Y8Fa]
- degradation on incubation with rat spinal cord membranes ([2]; after 30 minutes): fully degraded
